Laboratory results: patent publication US4082735A, “Novel immunological adjuvant compounds and methods of preparation thereof” (Syntex (U.S.A.) Inc., priority 1976, dated 1978)

Experiments:
[1] = system: guinea pigs; test: Delayed hypersensitivity to arsanilic tyrosine, skin test after immunisation with antigen mixture plus test compound in FIA; assay type: in vivo; details: relative to FIA = 1; dose 50 μg per guinea pig, subcutaneous in FIA emulsion; skin test day 14, read at 24 hours
Protocol: (§1) The antigen mixture used consists of 20 μg. of arsanilic tyrosine and 100 μg. of protein [either bovine serum albumin (BSA) or ovalbumin]. The antigen mixture and the compounds to be tested, at the dose levels per guinea pig shown in the Table below, are dissolved in saline and emulsified with an equal volume of Freund's Incomplete Adjuvant (FIA). Groups of ten guinea pigs are used for each test compound and each guinea pig is injected with 0.1 ml. of the above emulsion, subcutaneously, in the nuchal region. Control groups are given the antigen mixture alone emulsified with FIA.
After 14 days, all animals are skin tested using 25 μg arsanilic tyrosine conjugated to either BSA or ovalbumin (BSA is used in this test when ovalbumin is present in the antigen mixture and vice versa) which is given in 0.1 ml saline intradermally in the flanks of the animals. […] Thus, the procedure is as follows: skin tests with a high degree of infiltration are scored as ++ and assigned the number 3; those with a lesser degree are scored as + and given the number 2, whereas skin reactions with no infiltration are scored as zero and assigned the number 1. […]

[2] = system: guinea pigs; test: Antibody titre (antibovine serum albumin or antiovalbumin antibodies) by passive hemagglutination or Farr radioimmune assay; assay type: in vivo; details: relative to FIA = 1; dose 50 μg per guinea pig, subcutaneous in FIA emulsion; sera day 42
Protocol: as §1
On day 42 all animals are bled by cardiac puncture and the sera assayed for antibovine serum albumin or antiovalbumin antibodies by the passive hemagglutination technique or by radiommune assay using the Farr techbique (P. Minden and R.S. Farr in "Handbook of Experimental Immunology", edited by D.M. Weir, Chapter 15, Volume 1, Blackwell Scientific Publications, Oxford) using 125 iodine labeled bovine serum albumin. Average potencies of these assays are presented in Column 2 of the Table below relative to FIA having the value of one.

[3] = system: dogs; test: Side effects in dogs after inoculation; assay type: in vivo, dog; details: 4 dogs
Excerpt: A. 48 Dogs were divided into groups and inoculated with the amounts of compound (per kilogram of body weight) as shown in the following Table: […]

[4] = system: cats; test: Side effects in cats after inoculation; assay type: in vivo, cat; details: 1500 μg per kilogram
Excerpt: B. Seven cats were divided into groups and inoculated with the amounts of compounds (per kilogram of body weight) as shown in the following Table: […]

Molecule	Average Potency, Delayed Hypersensitivity to Arsanilic Tyrosine [1]	Average Potency, Antibody Titre [2]	dogs showing severe depression, excessive salivation and vomiting ([3]; 240 μg per kilogram of body weight)	dogs showing severe depression, excessive salivation and vomiting ([3]; 600 μg per kilogram of body weight)	dogs showing severe depression, excessive salivation and vomiting ([3]; 1500 μg per kilogram of body weight)	condition at 24 hours post-inoculation ([4]; 3 cats)	food intake ([4]; 3 cats)	general condition following inoculation ([4]; 3 cats)	diarrhea ([4]; 3 cats, 2-5 hours post-inoculation)	vomiting, number of times ([4]; 3 cats, over a period of 2-5 hours post-inoculation)	rectal temperature, peak ([4]; seven hours post-inoculation)
CC(=O)N[C@H]1C(O)O[C@H](CO)[C@@H](O)[C@@H]1OC(C)C(=O)N[C@H](C)C(=O)N[C@H](CCC(=O)O)C(N)=O (stereo partly drawn) [2-(2-acetamido-2-deoxy-D-glucos-3-0-yl)-D-propionyl-L-alanyl-D-isoglutamine]	3.3	3.7	two of the dogs	All of the dogs	All of the dogs	all animals had returned to normal	Food was refused	became depressed and unkempt	All animals had diarrhea	4-6 times	104 ° F
2-acetamido-2-deoxy-D-glucos-3-O-yl-acetyl-L-prolyl-D-isoglutamine	5.4	8.0									
